A short description of data set [1]: Permeability of the compound by PAMPA method. To be noted: read-out: permeability. It counts as ADME. On the technique in general: In PAMPA a lipid-coated filter parts donor from acceptor wells.
In data set [2] the test system is HT-22. The data set is described as follows: Antioxidant activity against OGD/R induced damage in mouse HT-22 cells assessed as decrease in proportion of mitochondrial depolarized cells at 5 uM by JC-1 fluorescence based flow cytometry analysis (reference value: 91.7%). It counts as functional. More on the design: scale not given: the % may be the effect or the level left. In general terms: Flow cytometry measures light scatter and fluorescence of single cells or particles in a stream.

Data set [3] can be described thus: Half life in 12 hrs fasted male Sprague-Dawley rat at 50 mg/kg measured upto 48 hrs by LC-MS/MS analysis. The class given is ADME, organism-based. The note with it: in vivo.
For data set [4], the system named is HT-22. The data set is described as follows: Anti-apoptotic activity in OGD/R mouse HT-22 cells assessed as late apoptotic cells at 10 uM by annexin V-FITC and PI staining based flow cytometry analysis (reference value: 7.26%). It counts as functional.
Data set [5] relates to HT-22. As to the kind of experiment: Anti-apoptotic activity in OGD/R mouse HT-22 cells assessed as necrotic cells at 5 uM by annexin V-FITC and PI staining based flow cytometry analysis (reference value: 0.14%). It counts as functional.
For data set [6], the system named is HT-22. As to the kind of experiment: Anti-apoptotic activity in OGD/R mouse HT-22 cells assessed as necrotic cells at 1 uM by annexin V-FITC and PI staining based flow cytometry analysis (reference value: 0.14%). It counts as functional.
The nature of data set [7]: Cytotoxicity against mouse HT-22 cells assessed as cell viability incubated for 24 hrs by CCK-8 method. The class given is toxicity, cell-based.
For data set [8], the system named is HT-22. As to the kind of experiment: Anti-apoptotic activity in OGD/R mouse HT-22 cells assessed as early apoptotic cells at 1 uM by annexin V-FITC and PI staining based flow cytometry analysis (reference value: 9.51%). The class given is functional.
For data set [9], the system named is HT-22. As to the kind of experiment: Anti-apoptotic activity in OGD/R mouse HT-22 cells assessed as viable cells at 5 uM by annexin V-FITC and PI staining based flow cytometry analysis (reference value: 83.09%). It counts as functional. To be noted: read-out: Activity.
The test system of data set [10] is HT-22. As to the kind of experiment: Anti-apoptotic activity in OGD/R mouse HT-22 cells assessed as viable cells at 1 uM by annexin V-FITC and PI staining based flow cytometry analysis (reference value: 83.09%). The class given is functional. To be noted: read-out: Activity.
The nature of data set [11]: Drug concentration in male Sprague-Dawley rat Cerebrospinal fluid at 60 mg/kg, ip measured after 2 hrs by LC-MS analysis. The class given is ADME, organism-based. The note with it: read-out: Ct.
Data set [12] relates to HT-22. As to the kind of experiment: Antioxidant activity against OGD/R induced damage in mouse HT-22 cells assessed as decrease in proportion of mitochondrial depolarized cells at 10 uM by JC-1 fluorescence based flow cytometry analysis (reference value: 91.7%). More on the design: scale not given: the % may be the effect or the level left. The class given is functional.

Data set [13] in a line: Aqueous solubility of the compound incubated for 72 hrs under shaking condition by HPLC analysis. The class given is physicochemical.
In data set [14] the test system is HT-22. The data set is described as follows: Anti-apoptotic activity in OGD/R mouse HT-22 cells assessed as viable cells at 10 uM by annexin V-FITC and PI staining based flow cytometry analysis (reference value: 83.09%). It counts as functional. To be noted: read-out: Activity.
The nature of data set [15]: Drug concentration in male Sprague-Dawley rat plasma at 60 mg/kg, ip measured after 4 hrs by LC-MS analysis. The class given is ADME, organism-based.
A short description of data set [16]: Drug concentration in male Sprague-Dawley rat plasma at 60 mg/kg, ip measured after 0.5 hrs by LC-MS analysis. It counts as ADME, organism-based.
The test system of data set [17] is HT-22. As to the kind of experiment: Anti-apoptotic activity in OGD/R mouse HT-22 cells assessed as early apoptotic cells at 10 uM by annexin V-FITC and PI staining based flow cytometry analysis (reference value: 9.51%). The class given is functional.
Data set [18] is described as follows: Cytotoxicity against mouse BV-2 cells assessed as cell viability incubated for 24 hrs by CCK-8 method. The class given is toxicity, cell-based.
Data set [19] relates to HT-22. As to the kind of experiment: Anti-apoptotic activity in OGD/R mouse HT-22 cells assessed as necrotic cells at 10 uM by annexin V-FITC and PI staining based flow cytometry analysis (reference value: 0.14%). It counts as functional.
Data set [20] relates to HT-22. As to the kind of experiment: Anti-apoptotic activity in OGD/R mouse HT-22 cells assessed as late apoptotic cells at 5 uM by annexin V-FITC and PI staining based flow cytometry analysis (reference value: 7.26%). The class given is functional.
A short description of data set [21]: Drug concentration in male Sprague-Dawley rat Cerebrospinal fluid at 60 mg/kg, ip measured after 4 hrs by LC-MS analysis. The class given is ADME, organism-based. The note with it: read-out: Ct.
Data set [22] has as its system HT-22. The data set is described as follows: Neuroprotective activity against OGD/R induced cell damage in mouse HT-22 cells assessed as cell viability at 10 uM measured after 24 hrs by MTT assay (reference value: 69.01 +/-2.90%). It counts as functional. To be noted: read-out: Activity. A general note: Formazan colour is commonly taken as a measure of viable cells.

The subject of data set [23] is HT-22. As to the kind of experiment: Antioxidant activity against OGD/R induced damage in mouse HT-22 cells assessed as decrease in proportion of mitochondrial depolarized cells at 1 uM by JC-1 fluorescence based flow cytometry analysis (reference value: 91.7%). It counts as functional. More on the design: scale not given: the % may be the effect or the level left.

Data set [24] deals with HT-22. As to the kind of experiment: Anti-apoptotic activity in OGD/R mouse HT-22 cells assessed as early apoptotic cells at 5 uM by annexin V-FITC and PI staining based flow cytometry analysis (reference value: 9.51%). The class given is functional.
Data set [25] in a line: Drug concentration in male Sprague-Dawley rat plasma at 60 mg/kg, ip measured after 2 hrs by LC-MS analysis. It counts as ADME, organism-based.
A short description of data set [26]: Drug concentration in male Sprague-Dawley rat Cerebrospinal fluid at 60 mg/kg, ip measured after 0.5 hrs by LC-MS analysis. The class given is ADME, organism-based. To be noted: read-out: Ct.
For data set [27], the system named is HT-22. As to the kind of experiment: Anti-apoptotic activity in OGD/R mouse HT-22 cells assessed as late apoptotic cells at 1 uM by annexin V-FITC and PI staining based flow cytometry analysis (reference value: 7.26%). The class given is functional.
Data set [28] is described as follows: Acute toxicity in Kunming mouse assessed as effect on spleen at 500 mg/kg, ip measured after 14 days by H and E staining based analysis. It counts as organism-based. To be noted: in vivo, 336 h, time 14 day.
A short description of data set [29]: Acute toxicity in Kunming mouse assessed as effect on kidney at 500 mg/kg, ip measured after 14 days by H and E staining based analysis. The class given is organism-based. To be noted: in vivo, 336 h, time 14 day.
Data set [30] in a line: Acute toxicity in Kunming mouse assessed as effect on body weight at 500 mg/kg, ip measured after 14 days. It counts as organism-based. To be noted: in vivo, 336 h, time 14 day.
Data set [31] can be described thus: Acute toxicity in Kunming mouse assessed as effect on lung at 500 mg/kg, ip measured after 14 days by H and E staining based analysis. The class given is organism-based. The note with it: in vivo, 336 h, time 14 day.
Data set [32] can be described thus: Acute toxicity in Kunming mouse assessed as effect on liver at 500 mg/kg, ip measured 14 days by H and E staining based analysis. The class given is organism-based. To be noted: in vivo, 336 h, time 14 day.
Data set [33] in a line: Acute toxicity in Kunming mouse assessed as effect on heart at 500 mg/kg, ip measured after 14 days by H and E staining based analysis. It counts as organism-based. To be noted: in vivo, 336 h, time 14 day.

SMILES strings stand for the structures. Values after ≈ are worked out from the molar mass of the structure shown.

What is called half-life is the time in which the quantity being followed falls by half. As a reminder, the IC50 is the concentration needed to halve the response being measured. One may read the solubility (thermodynamic) as solubility found after equilibrating the solid with the medium.

As for `CN1CCN(C2=Nc3cc(Cl)ccc3Nc3ccccc32)CC1` [CLOZAPINE], the Papp in data set [1] was found to be 8.34 ×10⁻⁶ cm/s.
Regarding `Cc1ccc(C(=O)NCCc2c[nH]c3ccc(N(C)C)cc23)c(O)c1`, the Activity in [2] is 54%; in data set [4], 3.37%; in data set [5] it was 0.33%; in data set [6], 0.15%; in [8], 5.95%; in data set [12], 49.2%. Further, the Activity in data set [17] is listed as 2.01%; in [19], 1.06%; in data set [20] it was 3.67%; in data set [23], 81.7%; in data set [24], 2.34%; in [27] it was 5.84%. In addition, the half-life in [3] is 4.56 h. The IC50 at 24 h in data set [7] and in [18] was > 100 µM throughout. Moreover, the viability at 5 µM in [9] worked out at 93.7%. Further, the viability at 1 µM in data set [10] was determined as 88%. The concentration at 2 h stood at 30 ng/mL in data set [11] and 633 ng/mL in data set [25]. The compound further displayed a solubility (thermodynamic) at 72 h in data set [13] of 40 µg/mL (≈ 119 µM). Moreover, the viability at 10 µM worked out at 93.6% in data set [14] and 92.7% in data set [22]. Further, the concentration at 4 h was determined as 186 ng/mL in data set [15] and 20 ng/mL in [21]. The concentration at 0.5 h in [16] came to 4120 ng/mL; in [26], 53 ng/mL. Further, in data set [1], the Papp is 8.29 ×10⁻⁶ cm/s.
As to `Cc1ccc(C(=O)NCCc2c[nH]c3ccc(N(C)C)cc23)c(O)c1.Cl`, the half-life in [3] is 3.96 h. Besides, the Activity result in data set [28], in data set [29], in data set [30], in data set [31], in [32] and in data set [33] was “Non-Toxic” each time. Besides, the thermodynamic solubility at 72 h in data set [13] stood at 2300 µg/mL.

The record behind these values is ChEMBL document CHEMBL5614422, “Design, synthesis and biological evaluation of N-salicyloyl tryptamine derivatives as multifunctional neuroprotectants for the treatment of ischemic stroke” (Eur J Med Chem, 2024).
